Experimental data as given in patent US6979686B1, “Substituted pyrazoles as p38 kinase inhibitors” (Pharmacia Corporation, priority 2001, dated 2005).
Like-named read-outs stand apart in the source and are kept apart here. One block for each compound: values may come before it.

Tests used:
[1] = system: TNF-α, U937 human histiocytic lymphoma cell line; assay: LPS stimulation of TNF production by U937 cells; format: cell-based; conditions: for inhibition at 1 µM: U-937, @ 1.0 uM, read-out: U937 Cell % inhib @ conc.
Experimental: Maintenance and Differentiation of the U937 Human Histiocytic Lymphoma Cell Line:
Fifty million cells in 100 ml media were induced to terminal monocytic differentiation by 24 hour incubation with 20 ng/ml phorbol 12-myristate 13-acetate (Sigma). The cells were washed by centrifugation (200×g for 5 min) and resuspended in 100 ml fresh medium. After 24-48 hours, the cells were harvested, centrifuged, and resuspended in culture medium at 2 million cells/ml.
LPS Stimulation of TNF Production by U937 Cells:
Compounds were prepared as 10 mM stock solutions in DMSO and diluted in culture medium to yield a final DMSO concentration of 0.1% in the cell assay. LPS (E coli, 100 ng/ml final concentration) was then added at a volume of 0.02 ml. After 4 hour incubation at 37° C., the amount of TNF-α released in the culture medium was quantitated by ELISA. Inhibitory potency is expressed as IC50 (μM).
In vitro whole cell assay for measuring the ability of the compounds to inhibit TNF production in human U937 cells stimulated with LPS are shown in the column identified as: • “U937 Cell IC50, uM or % inhib @ conc., (uM)”

human p38 kinase alpha = molecular target: T1, human p38 kinase alpha (Homo sapiens, UniProt Q16539); assay: p38 kinase in vitro assay, phosphorylation of biotinylated PHAS-I with 32P-ATP; format: biochemical; conditions: for P38 alpha kinase % inhib @ conc. (uM): @ 1.0 uM
T1 construct: GST (N, cleaved yes); made in house; host or cells: E. coli DH10B
T1 sequence (Q16539 whole entry): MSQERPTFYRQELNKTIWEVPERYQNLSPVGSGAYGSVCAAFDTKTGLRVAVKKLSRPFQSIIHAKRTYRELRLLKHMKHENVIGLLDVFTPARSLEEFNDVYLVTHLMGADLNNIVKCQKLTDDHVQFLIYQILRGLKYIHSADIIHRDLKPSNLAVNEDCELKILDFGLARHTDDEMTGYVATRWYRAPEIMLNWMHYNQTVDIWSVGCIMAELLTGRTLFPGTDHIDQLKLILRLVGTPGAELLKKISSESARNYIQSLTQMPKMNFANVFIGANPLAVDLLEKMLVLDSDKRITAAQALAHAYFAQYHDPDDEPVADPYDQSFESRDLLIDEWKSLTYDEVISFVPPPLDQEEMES

[2] = Homo sapiens, U-937, TNF production in human U937 cells stimulated with LPS, read-out: U937 Cell IC50
[3] = in vitro P38-alpha kinase inhibition, read-out: P38 alpha kinase IC50
[4] = Homo sapiens, TNF production, U937 cells stimulated with LPS
[5] = @ 1.0 uM, TNF production, U937 cells stimulated with LPS
[6] = Homo sapiens, U-937, TNF production, human U937 cells stimulated with LPS, read-out: U937 Cell IC50
[7] = in vitro P38-alpha kinase, read-out: P38 alpha kinase IC50

Structure (SMILES): Cc1cccc(C)c1NC(=O)Cn1nc(-c2ccc(F)cc2)c(-c2ccncc2)c1C [Example B-2417]
U937 Cell IC50, uM or % inhib @ conc. (uM): % inhib ([1]; @ 10.0 uM, TNF production, U937 cells stimulated with LPS): 18.0% @
P38 alpha kinase IC50, uM or % inhib @ conc. (uM): % inhib (human p38 kinase alpha; @ 10.0 uM): 83.0% @

Structure (SMILES): CCCNC(=O)NC(C)c1[nH]nc(-c2ccc(F)cc2)c1-c1ccncc1 (stereo not shown) [Example B-0590]
IC50 [1, 2]: 38 µM
IC50 (human p38 kinase alpha; [3]): 1.57 µM

Structure (SMILES): COc1ccc(CC(=O)NC(Cc2ccccc2)c2[nH]nc(-c3ccc(F)cc3)c2-c2ccncc2)cc1OC (stereo not shown) [Example B-0847]
inhibition at 1 µM [1, 4]: 21%
IC50 (human p38 kinase alpha; [3]): 0.73 µM

Structure (SMILES): CCOC(=O)CC[C@H](NC(=O)Cn1nc(-c2ccc(F)cc2)c(-c2ccncc2)c1C)C(=O)OCC [Example B-2360]
IC50 ([1]; TNF production, human U937 cells stimulated with LPS, read-out: U937 Cell IC50): > 10 µM
P38 alpha kinase % inhib @ conc. (human p38 kinase alpha; @ 10.0 uM): 45.0% @

Structure (SMILES): CCCCCCCCOc1cccc(NC(=O)Cn2nc(-c3ccc(F)cc3)c(-c3ccncc3)c2C)c1 [Example B-2442]
IC50 ([1]; TNF production, U937 cells stimulated with LPS, read-out: U937 Cell IC50, uM or % inhib @ conc. (uM): IC50): > 10 µM
P38 alpha kinase IC50, uM or % inhib @ conc. (uM): % inhib (human p38 kinase alpha; @ 10.0 uM): 86.0% @

Structure (SMILES): COc1ccc(CC(=O)NC(C)c2[nH]nc(-c3ccc(F)cc3)c2-c2ccncc2)cc1OC (stereo not shown) [Example B-0548]
inhibition at 1 µM ([1]; Homo sapiens, TNF production in human U937 cells stimulated with LPS): 28%
IC50 (human p38 kinase alpha; [3]): 1.77 µM

Structure (SMILES): Cc1c(-c2ccncc2)c(-c2ccc(F)cc2)nn1CC(=O)N1CCC[C@H]1CN1CCCC1 [Example B-2384]
U937 Cell % inhib @ conc. ([1]; @ 10.0 uM, TNF production, LPS-stimulated U937 cells): 10.0% @
P38 alpha kinase % inhib @ conc. (human p38 kinase alpha; @ 100.0 uM): 49% @

Structure (SMILES): CCS(=O)(=O)NC(CCC(=O)NC)c1[nH]nc(-c2ccc(F)cc2)c1-c1ccncc1 (stereo not shown) [Example B-0877]
inhibition at 1 µM [1, 4]: 13%
IC50 (human p38 kinase alpha; [3]): 1.17 µM

Structure (SMILES): Cc1n[nH]c(-c2ccc(Br)cc2)c1-c1ccncc1 [Example A-39]
IC50 ([1]; Table 5, LPS-stimulated U937 cells, TNF-α, read-out: U937 Cell Assay IC50): 0.244 µM
IC50 (human p38 kinase alpha; activated human p38 kinase alpha, PHAS-I substrate, 50 μM unlabeled ATP, read-out: p38 kinase IC50): 1.1 µM

Structure (SMILES): O=C(NCCCc1[nH]nc(-c2ccc(F)cc2)c1-c1ccncc1)NC1CN2CCC1CC2 (stereo not shown) [Example B-1309]
IC50 [1, 6]: > 1 µM
IC50 (human p38 kinase alpha; [7]): 0.045 µM

Second part, led by results:

P38 alpha kinase % inhib @ conc. (human p38 kinase alpha; @ 10.0 uM): 67% @
Structure (SMILES): C=Cc1ccc(S(=O)(=O)NCc2[nH]nc(-c3ccc(F)cc3)c2-c2ccncc2)cc1 [Example B-0140]
U937 Cell % inhib @ conc. [1, 5]: 9.0% @

IC50 [1, 2]: > 1 µM
IC50 (human p38 kinase alpha; [3]): 0.87 µM
Structure (SMILES): CN(C(=O)NC(Cc1ccccc1)c1[nH]nc(-c2ccc(F)cc2)c1-c1ccncc1)c1ccccc1 (stereo not shown) [Example B-0731]

IC50 [1, 6]: 0.092 µM
IC50 (human p38 kinase alpha; [7]): < 0.1 µM
Structure (SMILES): O=C(Nc1ccccc1F)N1CCC(c2[nH]nc(-c3ccc(F)cc3)c2-c2ccncc2)CC1 [Example B-1379]

IC50 [1, 6]: 5 µM
IC50 (human p38 kinase alpha; [7]): 0.12 µM
Structure (SMILES): O=S(=O)(c1ccccc1F)N1CCC(c2[nH]nc(-c3ccc(F)cc3)c2-c2ccncc2)CC1 [Example B-1377]

IC50 (human p38 kinase alpha; [3]): 1.64 µM
Structure (SMILES): O=C(NC(Cc1ccccc1)c1[nH]nc(-c2ccc(F)cc2)c1-c1ccncc1)C1CCCC1 (stereo not shown) [Example B-0820]
inhibition at 1 µM [1, 4]: 3%

IC50 [1, 6]: > 1 µM
IC50 (human p38 kinase alpha; [7]): 0.24 µM
Structure (SMILES): O=C(NCCCc1[nH]nc(-c2ccc(F)cc2)c1-c1ccncc1)NCCCN1CCCC1=O [Example B-1319]

IC50 [1, 6]: 0.77 µM
IC50 (human p38 kinase alpha; [7]): < 0.1 µM
Structure (SMILES): COc1cccc(CC(=O)N2CCC(c3[nH]nc(-c4ccc(F)cc4)c3-c3ccncc3)CC2)c1 [Example B-1370]

IC50 (human p38 kinase alpha; [3]): 0.87 µM
Structure (SMILES): CNC(=O)CCC(NS(=O)(=O)c1ccccc1F)c1[nH]nc(-c2ccc(F)cc2)c1-c1ccncc1 (stereo not shown) [Example B-0879]
inhibition at 1 µM [1, 4]: 1%

IC50 [1, 6]: > 1 µM
IC50 (human p38 kinase alpha; [3]): 2.12 µM
Structure (SMILES): O=C(NC(Cc1ccccc1)c1[nH]nc(-c2ccc(F)cc2)c1-c1ccncc1)c1ccccc1C(F)(F)F (stereo not shown) [Example B-0812]

IC50 (human p38 kinase alpha; [7]): 1.43 µM
Structure (SMILES): O=S(=O)(c1cccc(Cl)c1Cl)N1CCC(c2[nH]nc(-c3ccc(F)cc3)c2-c2ccncc2)CC1 [Example B-1448]
inhibition at 1 µM ([1]; Homo sapiens, TNF production, LPS-stimulated U937 cells): 22%

P38 alpha kinase % inhib @ conc. (uM) (human p38 kinase alpha): 78.0% @
Structure (SMILES): C[C@@H](NC(=O)NCCc1[nH]nc(-c2ccc(F)cc2)c1-c1ccncc1)c1ccccc1 [Example B-1045]
U937 Cell % inhib @ conc. (uM) [1, 5]: 25.0% @

IC50 [1, 6]: > 1 µM
IC50 (human p38 kinase alpha; [3]): 1.92 µM
Structure (SMILES): CNC(=O)CCC(NC(=O)c1ccccc1F)c1[nH]nc(-c2ccc(F)cc2)c1-c1ccncc1 (stereo not shown) [Example B-0874]

P38 alpha kinase % inhib @ conc. (uM) (human p38 kinase alpha): 81.0% @
Structure (SMILES): O=C(NCCc1[nH]nc(-c2ccc(F)cc2)c1-c1ccncc1)NC1CC1c1ccccc1 (racemic) [Example B-0941]
U937 Cell % inhib @ conc. (uM) [1, 5]: 25.0% @
